Columns and labels:
[1] = Measurement of lipophilicity (LogP): octanol-water partition coefficient of the 99mTc complexes; format: physicochemical; conditions: for Log P (octanol/50 mM phosphate buffer): 99mTc complex of the compound, 1-octanol / 50 mM phosphate buffer pH 7.4, room temperature; for Log P: 99mTc complex, repeated in the biodistribution table
Description: The tube was vortexed at room temperature for 1 min and then was centrifuged at high speed for 60 min. 0.1 ml samples of both phases were pipetted into other test tubes with adequate care to avoid cross contamination between the phases, and were counted in a Wallac Wizzard gamma-counter. The measurement was repeated three times.
The partition coefficient, P, was calculated as follows: P=(cpm in octanol−(cpm background)/( (cpm in water−(cpm background).
Usually the final partition coefficient value was expressed as log P.

[2] = Biodistribution of the 99mTc complexes in normal male Wistar rats; format: in vivo; conditions: 99mTc complex, rat; for Clearance (% ID) HBS 120 min / Blood 120 min / Heart 120 min / Liver 120 min / Lung 120 min / Muscle 120 min / Clearance (% ID) Urine (K, B, U) 120 min: 120 min p.i.; for Blood 5 min: 5 min p.i.; for Heart/blood / Heart/liver / Heart/lung / Heart/muscle: ratio of uptake, 120 min values
Description: The ^99mTc complexes of Compounds 4, 5 and 7 were prepared as described in Example 8. […] Animals were anaesthetised with Halothane (6% in oxygen), injected with 0.1 ml (500 MBq/ml) Test Item, sacrificed, dissected and the samples assayed for radioactivity.

Row | Structure (SMILES) | Log P (octanol/50 mM phosphate buffer) [1] | Log P [1] | Clearance (% ID) HBS 120 min [2] [% ID] | Blood 5 min [2] [% ID/G] | Blood 120 min [2] [% ID/G] | Heart 120 min [2] [% ID/G] | Liver 120 min [2] [% ID/G] | Lung 120 min [2] [% ID/G] | Muscle 120 min [2] [% ID/G] | Heart/blood [2] | Heart/liver [2] | Heart/lung [2] | Heart/muscle [2] | Clearance (% ID) Urine (K, B, U) 120 min [2] [% ID]
1 | CCCCc1nc(Cl)c(CNC(=O)C(CC(C)C)NC(=O)CC(CNCCN)CNCCN)n1Cc1ccc(-c2ccccc2-c2nn[nH]n2)cc1 (centres unmarked) (99mTc complex, metal not drawn) [Compound 4] | +0.6 | 0.6 | 74.65 | 3.26 | 0.91 | 0.44 | 6.52 | 1.84 | 0.34 | 0.49 | 0.07 | 0.24 | 1.3 | 21.13
2 | CCCCc1nc(Cl)c(CNC(=O)C(CC(C)C)NC(=O)COCC(=O)NCCOCCOCCOCCNC(=O)CC(CNCCN)CNCCN)n1Cc1ccc(-c2ccccc2-c2nn[nH]n2)cc1 (centres unmarked) (99mTc complex, metal not drawn) [Compound 5] | −0.1 | −0.1 | 54.21 | 1.5 | 0.26 | 0.13 | 3.53 | 0.6 | 0.9 | 0.5 | 0.04 | 0.21 | 1.44 | 14.45
3 | CC[C@H](C)[C@H](NC(=O)[C@@H]1CCCN1C(=O)[C@H](Cc1cnc[nH]1)NC(=O)[C@@H](NC(=O)[C@H](Cc1ccc(O)cc1)NC(=O)[C@@H](NC(=O)[C@H](CCCNC(=N)N)NC(=O)NCCCCCCC(CNCCN)CNCCN)C(C)C)[C@@H](C)CC)C(=O)O (99mTc complex, metal not drawn) [Compound 7] | <−2 | <−2 | 19.63 | 0.84 | 0.05 | 0.1 | 1.55 | 0.4 | 0.1 | 2 | 0.06 | 0.25 | 1 | 64.26
4 | NCCNCC(CNCCN)CC(=O)NCc1ccccc1 [Compound 3] | <−2 |  |  |  |  |  |  |  |  |  |  |  |  | 
5 | NCCNCC(CCCCCCNC(=O)c1ccccc1)CNCCN [Compound 6] | −1.8 |  |  |  |  |  |  |  |  |  |  |  |  | 
